This is an account of results in publication PMC5653977 (EMBO Molecular Medicine, 2017).

Counter-ions that a name gives are not always drawn.

The subject of the first experiment is NRG1-ERBB4 signaling. The experiment in a line: Nrg1-ERBB4-PIK3R1 split TEV co-culture compound screen of the NIH Clinical Collection.
Conditions: not given
It counts as cell-based, human. From the text: For our HTS‐compatible split TEV assay approach, human full‐length ERBB4‐Cyt1 was fused to the NTEV fragment, a TEV protease cleavage site (tevS) and the artificial co‐transcriptional activator Gal4‐VP16 (ERBB4‐NTEV‐tevS‐GV); human PIK3R1 was fused to the CTEV fragment (PIK3R1‐CTEV) (Fig 1A). Upon ERBB4 activation, PIK3R1 is recruited to the receptor resulting in a reconstituted protease activity that cleaves off GV. In turn, released GV translocates to the nucleus and binds to upstream activating sequences (UAS) to activate the transcription of a firefly luciferase reporter gene (Fig 1A). A constitutively expressed Renilla luciferase driven under the control of the human thymidine kinase (TK) promoter was used as control to address off‐target effects related to toxicity.
For small molecule screening, the NIH‐NCC Clinical Collection library (sets NCC‐003 and NCC‐201) was used containing 727 small molecules that are FDA‐approved and have a history in clinical applications (www.nihclinicalcollection.com). A Hamilton Labstar robot connected to 37 and 4°C incubators for cell incubation and compound storage and application (Cytomat automated incubator, ThermoScientific) and to a luciferase reader (Berthold Technologies) was used to automatically perform the screening. […] Each batch was screened three times.
For one 96‐well plate, 4 × 10^6 PC12 cells were harvested and diluted in 5 ml assay medium (phenol red‐free DMEM (low glucose, Life Technologies), 10% FCS, 5% HS, no antibiotics). The split TEV assay plasmids (2 μg pcDNA3_ERBB4‐NTEV‐tevS‐GV‐2xHA, 2 μg pTag4C_PIK3R1‐CTEV‐2xHA, 2 μg p5xUAS_firefly luciferase, 2 μg pTK_Renilla luciferase, and 0.5 μg pECFP‐C1 for examining transfection efficiency) were diluted in 2.5 ml Opti‐MEM (Life Technologies) and vortexed. In parallel, 20 μl of the transfection reagent Lipofectamine 2000 was diluted in 2.5 ml Opti‐MEM and vortexed.
For plating of one 96‐well plate, 10 ml suspension, containing the 4 × 10^6 in solution‐transfected cells, was placed in the bubble paddle reservoir of the Hamilton Cellstar robot. 100 μl was seeded per 96‐well using the 96‐tip pipetting head. The homogeneity of the cell suspension was guaranteed over time by mild stirring using the paddling device inside the reservoir. For five plates each, 50 ml of additional cell suspension was used to allow for losses of inaccessible volume.
The cells were allowed to express the plasmids for 24 h before compounds were added. Proper expression and transfection efficiency were verified by ECFP expression on a clear control plate. The compounds were applied in a final concentration of 10 μM using DMSO as diluent. […] Thirty minutes later, 10,000 Nrg1‐expressing PC12 cells in 100 μl assay medium were seeded on top. 24 h after addition of the compounds, the cells were lysed using 40 μl Passive Lysis buffer (Promega) and subjected to a Dual Luciferase Assay (Promega) according to the manufacturer's instructions. The data were analyzed in R Bioconductor using the package cellHTS2 (http://www.bioconductor.org/packages/devel/bioc/html/cellHTS2.html), assessed using the z‐score, and visualized using the program Mondrian (http://stats.math.uni-augsburg.de/mondrian/).
In turn, `CNC(=N)NCCC[C@H](N)C(=O)O` gave a Z-SCORE of -0.42.
The molecule `CCCSc1ccc2nc(NC(=O)OC)[nH]c2c1` [Albendazole, reference compound] showed a Z-SCORE of -5.48.

Staying with this experiment, now noted: NIH Clinical Collection NCC-003 raw data; compounds ranked by Z-score; 'flagged' given instead of a Z-score.
The molecule `CCOC(=O)C1=C(C)NC(C)=C(C(=O)OC)C1c1cccc([N+](=O)[O-])c1` (stereo not shown) [NITRENDIPINE] yielded a Z-SCORE of -1.82.
Turning to `CC(C)(O)c1ccccc1CC[C@@H](SCC1(CC(=O)[O-])CC1)c1cccc(/C=C/c2ccc3ccc(Cl)cc3n2)c1.[Na+]` [MONTELUKAST Na], the Z-SCORE is given as -1.21.
`O=c1cnn([C@@H]2O[C@H](CO)[C@@H](O)[C@H]2O)c(=O)[nH]1` [6-AZAURIDINE] showed a Z-SCORE of -1.32.
Still for that read-out and setting: as for `COc1cc([C@@H]2c3cc4c(cc3[C@@H](O[C@@H]3O[C@@H]5CO[C@@H](C)O[C@H]5[C@H](O)[C@H]3O)[C@H]3COC(=O)[C@H]23)OCO4)cc(OC)c1O` [Etoposide], the figure is -2.67.
Regarding `CC(=O)[C@]1(O)Cc2c(O)c3c(c(O)c2[C@@H](O[C@H]2C[C@H](N)[C@H](O)[C@H](C)O2)C1)C(=O)c1ccccc1C3=O` [IDARUBICIN HCl], the Z-SCORE result is on record as “flagged”.
For `CC(C)/N=c1\cc2n(-c3ccc(Cl)cc3)c3ccccc3nc-2cc1Nc1ccc(Cl)cc1` [CLOFAZIMINE], the Z-SCORE entry is listed as “flagged”.

The same experiment, now with this note: compound screen of the NIH Clinical Collection, sheet raw data NCC-003; compounds ranked by Z-score.
Consider `N#CCc1ccccc1` [Benzeneacetonitrile], for which the Z-SCORE was determined as 0.03.
Molecule `O=C1[C@H](CC[C@H](O)c2ccc(F)cc2)[C@@H](c2ccc(O)cc2)N1c1ccc(F)cc1` [EZETIMIBE] gave a Z-SCORE of 0.64.
Molecule `Cc1cccc(C)c1NC(=O)C1CCCCN1C` (stereo not shown) [MEPIVACAINE HYDROCHLORIDE] returned a Z-SCORE of -0.39.
`CN(CCOc1ccc(CC2SC(=O)NC2=O)cc1)c1ccccn1.Cl` (stereo not shown) [ROSIGLITAZONE HCl] returned a Z-SCORE of 0.11.
On the same count and under the same terms, with `C=C(C)CN1CC[C@]23c4c5ccc(O)c4O[C@H]2c2[nH]c4ccccc4c2C[C@@]3(O)C1C5.Cl.O` [SDM25N] the figure was -0.11.
Still for that read-out and setting: with `CNS(=O)(=O)Cc1ccc2[nH]cc(CCN(C)C)c2c1` [SUMATRIPTAN SUCCINATE] the figure was -0.07; with `COC(=O)CCc1ccc(OCC(O)CNC(C)C)cc1` (stereo not shown) [ESMOLOL HYDROCHLORIDE], 0.38.
With `CN1[C@@H](CC(=O)c2ccccc2)CCC[C@H]1C[C@H](O)c1ccccc1` [LOBELINE HYDROCHLORIDE], the Z-SCORE is reported as 0.14.
Consider `CC[C@@H](C(N)=O)N1CCCC1=O`, for which the Z-SCORE was -0.28.
As to `CCCc1nc(C)c2c(=O)[nH]c(-c3cc(S(=O)(=O)N4CCN(CC)CC4)ccc3OCC)nn12.O=C(O)CC(O)(CC(=O)O)C(=O)O` [Vardenafil citrate, reference compound], the Z-SCORE came out at 5.88.
Regarding `COc1cc2c(cc1OC)C(=O)C(CC1CCN(Cc3ccccc3)CC1)C2` (stereo not shown) [Donepezil], the Z-SCORE is 0.
`Nc1ccn([C@H]2CC[C@@H](CO)O2)c(=O)n1` [2',3'-DIDEOXYCYTIDINE] returned a Z-SCORE of 1.38.
Molecule `CC(C)[C@H](N)C(=O)OCCOCn1cnc2c(=O)[nH]c(N)nc21` [VALACICLOVIR HYDROCHLORIDE] had a Z-SCORE of 0.49.
On to `COc1cc(C(=O)NC2CCCNC2)cc(OC)c1OC` (stereo not shown) [TROXIPIDE], for which the Z-SCORE is -0.33.
The same measure, in the same setting: as for `CCN1CC(CCN2CCOCC2)C(c2ccccc2)(c2ccccc2)C1=O.Cl` (stereo not shown) [DOXAPRAM HYDROCHLORIDE], the figure is -0.46; as for `C[C@]12CCC(=O)C=C1CC[C@@H]1[C@@H]2C(=O)C[C@@]2(C)[C@H]1CC[C@]2(O)C(=O)CO` [CORTISONE], 0.26.
The molecule `CN(C)CCC=C1c2ccccc2COc2ccccc21` [Doxepin] returned a Z-SCORE of 2.16.
`CCc1nn(CCCN2CCN(c3cccc(Cl)c3)CC2)c(=O)n1CCOc1ccccc1` [Nefazodone] came in with a Z-SCORE of -0.63.
Take `COc1ccc(CCN)cc1OC` [Homoveratrylamine]: the Z-SCORE is on record as -0.37.
Same read-out and setting: with `CC(COc1ccccc1Cc1ccccc1)N1CCCCC1.O=P(O)(O)O` (stereo not shown) [BENPROPERINE PHOSPHATE] the figure was -0.08.
`CC(=O)N1CCN(c2ccc(OCC3COC(Cn4ccnc4)(c4ccc(Cl)cc4Cl)O3)cc2)CC1` (stereo not shown) [Ketoconazole] registered a Z-SCORE of -1.1.
The molecule `COC1=C(OC)C(=O)C(CCCCCCCCCCO)=C(C)C1=O` [IDEBENONE] gave a Z-SCORE of 2.79.
The same measure, in the same setting: as for `COc1cc(C)c(Cc2cnc(N)nc2N)cc1OC` [ORMETOPRIM], the figure is 1.63.

Staying with this experiment, now noted: compounds at 10 μM, 24 h; PC12 split TEV assay cells co-cultured with Nrg1-expressing PC12 cells; analysed with cellHTS2.
For the molecule `C#CCN(C)[C@H](C)Cc1ccccc1.Cl` [DEPRENALIN, reference compound], the Z-SCORE turned out to be 0.31.
For `COc1cc2nc(N3CCN(C(=O)C4COc5ccccc5O4)CC3)nc(N)c2cc1OC` (stereo not shown) [Doxazosin, reference compound], the Z-SCORE is 0.51.
Regarding `COc1ccc(Cl)cc1C(=O)NCCc1ccc(S(=O)(=O)NC(=O)NC2CCCCC2)cc1` [Glyburide, reference compound], the Z-SCORE is listed as -0.5.
Same read-out and setting: as for `CS(=O)(=O)OCCCCOS(C)(=O)=O` [Busulfan, reference compound], the figure is 0.13; as for `C[C@]12C=CC(=O)C=C1CC[C@@H]1[C@@H]2[C@@H](O)C[C@@]2(C)[C@H]1CC[C@]2(O)C(=O)CO` [Prednisolone, reference compound], -1.95; as for `NC(=O)c1cnccn1` [Pyrazinamide, reference compound], 1.05.
Turning to `C[C@](N)(Cc1ccc(O)c(O)c1)C(=O)O` [Methyldopa, reference compound], the Z-SCORE was 0.63.
The molecule `CC(C)NCC(O)COc1cccc2ccccc12` (stereo not shown) [Inderal, reference compound] yielded a Z-SCORE of -0.81.
Molecule `CN(C)CCCN1c2ccccc2Sc2ccc(Cl)cc21` [Sonazine, reference compound] came in with a Z-SCORE of 0.6.
As for `CCOC(=O)[C@H](CCc1ccccc1)N[C@@H](C)C(=O)N1Cc2ccccc2C[C@H]1C(=O)O` [Quinapril hydrochloride, reference compound], the Z-SCORE is -1.66.
With `Cc1ccccc1C(OCCN(C)C)c1ccccc1` (stereo not shown) [Norflex, reference compound], the Z-SCORE amounted to 0.74.
The molecule `CCCc1nc(C)c2c(=O)[nH]c(-c3cc(S(=O)(=O)N4CCN(CC)CC4)ccc3OCC)nn12.O=C(O)CC(O)(CC(=O)O)C(=O)O` [Vardenafil citrate, reference compound] displayed a Z-SCORE of 5.88.
`O=C1CC2(CCCC2)CC(=O)N1CCCCN1CCN(c2ncccn2)CC1` [Buspar, reference compound] yielded a Z-SCORE of -0.01.
With `NS(=O)(=O)c1cc(C2(O)NC(=O)c3ccccc32)ccc1Cl` (stereo not shown) [Chlorthalidone, reference compound], the Z-SCORE was determined as 0.87.
The molecule `CC(=O)O[C@]1(C(C)=O)CC[C@H]2[C@@H]3C[C@H](C)C4=CC(=O)CC[C@]4(C)[C@H]3CC[C@@]21C` [Medroxyprogesterone 17-acetate, reference compound] had a Z-SCORE of -1.59.
Take `CC(COc1ccccc1)N(CCCl)Cc1ccccc1` (stereo not shown) [Dibenzyline, reference compound]: the Z-SCORE is on record as -1.18.
The molecule `COc1c2occc2cc2ccc(=O)oc12` [Methoxsalen, reference compound] showed a Z-SCORE of 0.16.
In turn, `CCC(=O)O[C@]1(C(=O)CCl)[C@@H](C)C[C@H]2[C@@H]3CCC4=CC(=O)C=C[C@]4(C)[C@@]3(F)[C@@H](O)C[C@@]21C` [CLOBETASOL PROPIONATE, reference compound] had a Z-SCORE of -2.64.
In the case of `CC(=O)OCC(=O)[C@@]12OC(C)(C)O[C@@H]1C[C@H]1[C@@H]3C[C@H](F)C4=CC(=O)C=C[C@]4(C)[C@@]3(F)[C@@H](O)C[C@@]12C` [FLUOCINOLONE ACETONIDE 21-ACETATE, reference compound], the Z-SCORE was found to be 0.81.
`C[C@@H]1C[C@H]2[C@@H]3CCC4=CC(=O)C=C[C@]4(C)[C@@]3(F)[C@@H](O)C[C@]2(C)[C@@]1(O)C(=O)CO` [Dexamethasone, reference compound]: the Z-SCORE was determined as 0.88.
`CCCC1O[C@@H]2C[C@H]3[C@@H]4CCC5=CC(=O)C=C[C@]5(C)[C@H]4[C@@H](O)C[C@]3(C)[C@]2(C(=O)CO)O1` (stereo partly shown) [BUDESONIDE, reference compound] returned a Z-SCORE of -0.46.
